Patent US7777049B2, “Crystalline forms of Rizatriptan benzoate” (ratiopharm GmbH, priority 2004, dated 2010)

Test: Suspension equilibration of a Form A / Form B mixture in ethyl acetate, product identified by X-ray powder diffraction
Type: physicochemical
Details: 7 mg Form A and 7 mg Form B suspended in 1 ml ethyl acetate, stirred 16 hours at 25° C.; Form A obtained by XRPD
Experimental: 7 mg rizatriptan benzoate Form A and 7 mg Form B are suspended in 1 ml ethyl acetate, and stirred 16 hours at 25° C. After filtration, a white powder is obtained.
X-ray powder diffraction measurements were performed on a Philips 1710 powder X-ray diffractometer using Cu Kα radiation (Cu Kα1=1.54060 Å). The X-ray source is operated at 45 kV and 45 mA. Spectra are recorded at a step size of 0.02° with a counting time of 2.4 seconds per step. The accuracy of the 2 theta values of conventionally recorded powder X-ray diffraction patterns is generally ±0.1-0.2°. For sample preparation, about 40 mg of substance was prepared into circular shaped quartz sample holders of 0.5 mm depth and 10 mm width.

SMILES	relative thermodynamic stability of the crystalline form
CN(C)CCc1c[nH]c2ccc(Cn3cncn3)cc12 [Form B, N,N-dimethyl-5-(1H-1,2,4-triazol-1-ylmethyl)-1H-indole-3-ethanamine benzoate]	metastable form
CN(C)CCc1c[nH]c2ccc(Cn3cncn3)cc12 [Form A, N,N-dimethyl-5-(1H-1,2,4-triazol-1-ylmethyl)-1H-indole-3-ethanamine benzoate]	thermodynamically most stable form
